Laboratory results reported in PubChem BioAssay AID330 (DTP/NCI, 2004).
Toxic doses and inconclusive results are not listed. Rule for the calls: active = survival T/C of 150% or more; inactive = T/C below 125% in these data.

System: P388 leukemia ip, CD2F1 mice, survival T/C
Assay: NCI In Vivo Anticancer Drug Screen. Data for tumor model P388 Leukemia (intraperitoneal) in CD2F1 (CDF1) mice
Details: endpoint: median survival time, higher = longer survival
In short: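 Mice carrying the transplanted tumor received test compound or vehicle. Survival was recorded in each group, and the value is the treated-group measurement divided by that of the vehicle-treated control group.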

[1] = dose: 50.0 mg/kg/injection, schedule: Q01DX005 (ip), vehicle: Klucel (hydroxypropylcellulose) (HPC)
[2] = dose: 100.0 mg/kg/injection, schedule: Q01DX005 (ip), vehicle: Klucel (hydroxypropylcellulose) (HPC)
[3] = dose: 200.0 mg/kg/injection, schedule: Q01DX005 (ip), vehicle: Klucel (hydroxypropylcellulose) (HPC)
[4] = dose: 50.0 mg/kg/injection, schedule: Q01DX009 (ip), vehicle: Klucel (hydroxypropylcellulose) (HPC)
[5] = dose: 60.0 mg/kg/injection, schedule: Q01DX005 (ip), vehicle: saline with Tween-80
[6] = dose: 120.0 mg/kg/injection, schedule: Q01DX005 (ip), vehicle: saline with Tween-80
[7] = dose: 60.0 mg/kg/injection, schedule: Q01DX005 (ip), vehicle: Klucel (hydroxypropylcellulose) (HPC)
[8] = dose: 120.0 mg/kg/injection, schedule: Q01DX005 (ip), vehicle: Klucel (hydroxypropylcellulose) (HPC)
[9] = dose: 240.0 mg/kg/injection, schedule: Q01DX005 (ip), vehicle: Klucel (hydroxypropylcellulose) (HPC)

Measured: T/C

OC(CCl)Cn1nc2ccccc2n1 (stereo not given)
inactive: [1] 96 % of control | [2] 105 % of control | dose: 100.0 mg/kg/injection, schedule: Q04DX003 (ip), vehicle: Klucel (hydroxypropylcellulose) (HPC) 99 % of control | [3] 103 % of control | dose: 200.0 mg/kg/injection, schedule: Q04DX003 (ip), vehicle: Klucel (hydroxypropylcellulose) (HPC) 99 % of control | dose: 400.0 mg/kg/injection, schedule: Q04DX003 (ip), vehicle: Klucel (hydroxypropylcellulose) (HPC) 93 % of control

O=C(Nc1ccc(Cl)c([N+](=O)[O-])c1)Nc1nc2ccccc2s1
inactive: [1] 98 % of control | [2] 86 % of control | [3] 87 % of control

CC1(C)OC2C3CC(C2O1)C1C3C2(Cl)CC1(Cl)C(Cl)=C2Cl (stereo not given)
inactive: dose: 50.0 mg/kg/injection, schedule: Q01DX005 (ip), vehicle: saline with Tween-80 106 % of control | dose: 100.0 mg/kg/injection, schedule: Q01DX005 (ip), vehicle: saline with Tween-80 99 % of control | dose: 200.0 mg/kg/injection, schedule: Q01DX005 (ip), vehicle: saline with Tween-80 101 % of control

N#CC1=C(C#N)CC(c2ccccc2)CC1 (stereo not given)
inactive: dose: 50.0 mg/kg/injection, schedule: Q01DX009 (ip), vehicle: saline 104 % of control | dose: 100.0 mg/kg/injection, schedule: Q01DX009 (ip), vehicle: saline 100 % of control | dose: 200.0 mg/kg/injection, schedule: Q01DX009 (ip), vehicle: saline 96 % of control

COc1ccc(C(=O)/C=C/c2cc3c(cc2OCc2ccccc2)OCO3)c(OCc2ccccc2)c1
inactive: dose: 75.0 mg/kg/injection, schedule: Q04DX003 (ip), vehicle: Klucel (hydroxypropylcellulose) (HPC) 99 % of control | dose: 150.0 mg/kg/injection, schedule: Q04DX003 (ip), vehicle: Klucel (hydroxypropylcellulose) (HPC) 94 % of control | dose: 300.0 mg/kg/injection, schedule: Q04DX003 (ip), vehicle: Klucel (hydroxypropylcellulose) (HPC) 90 % of control

Cn1c(=O)c2cn[nH]c2n(C)c1=O
inactive: [4] 104 % of control | dose: 100.0 mg/kg/injection, schedule: Q01DX009 (ip), vehicle: Klucel (hydroxypropylcellulose) (HPC) 100 % of control | dose: 200.0 mg/kg/injection, schedule: Q01DX009 (ip), vehicle: Klucel (hydroxypropylcellulose) (HPC) 96 % of control

O=c1[nH]cc(C(O)Cc2ccccc2)c(=O)[nH]1 (stereo not given)
inactive: dose: 100.0 mg/kg/injection, schedule: Q01DX009 (ip), vehicle: saline with Tween-80 104 % of control | dose: 200.0 mg/kg/injection, schedule: Q01DX009 (ip), vehicle: saline with Tween-80 100 % of control | dose: 400.0 mg/kg/injection, schedule: Q01DX009 (ip), vehicle: saline with Tween-80 100 % of control

COc1ccc2c(c1)CCC(c1nc3ccc(C)cc3[nH]c1=O)C2=O (stereo not given)
inactive: [5] 103 % of control | [6] 108 % of control

Oc1c(-c2ccccc2)nn(O)c1-c1ccccc1
inactive: dose: 12.5 mg/kg/injection, schedule: Q01DX009 (ip), vehicle: Klucel (hydroxypropylcellulose) (HPC) 106 % of control | dose: 25.0 mg/kg/injection, schedule: Q01DX009 (ip), vehicle: Klucel (hydroxypropylcellulose) (HPC) 100 % of control | [4] 95 % of control

N#Cc1nc(CC(=O)c2ccc(Cl)c(Cl)c2)c(CC(=O)c2ccc(Cl)c(Cl)c2)nc1C#N
inactive: [5] 114 % of control | [6] 120 % of control | dose: 240.0 mg/kg/injection, schedule: Q01DX005 (ip), vehicle: saline with Tween-80 86 % of control

CC(OC1OC(C(=O)O)C(O)C(O)C1O)c1ccccc1 (stereo not given)
inactive: dose: 200.0 mg/kg/injection, schedule: Q01DX009 (ip), vehicle: saline sonified 100 % of control | dose: 400.0 mg/kg/injection, schedule: Q01DX009 (ip), vehicle: saline sonified 95 % of control

CSc1n[nH]c(N)c1C(N)=O
inactive: dose: 100.0 mg/kg/injection, schedule: Q01DX001 (ip), vehicle: saline with Tween-80 107 % of control | dose: 200.0 mg/kg/injection, schedule: Q01DX001 (ip), vehicle: saline with Tween-80 100 % of control | dose: 400.0 mg/kg/injection, schedule: Q01DX001 (ip), vehicle: saline with Tween-80 111 % of control

Cc1cccc(N2CC3CC4C=CC3(C2)O4)c1 (stereo not given)
inactive: [7] 96 % of control | [8] 96 % of control | [9] 96 % of control

O=C1CSC(c2cc([N+](=O)[O-])ccc2Cl)N1c1nncs1 (stereo not given)
inactive: [7] 108 % of control | [8] 105 % of control | [9] 98 % of control

Cc1nc2nc(N)nc(N)c2nc1Sc1ccc(Cl)cc1
inactive: dose: 25.0 mg/kg/injection, schedule: Q04DX003 (ip), vehicle: saline with Tween-80 94 % of control | dose: 50.0 mg/kg/injection, schedule: Q04DX003 (ip), vehicle: saline with Tween-80 90 % of control
